According to patent US20260055103A1, “2,3,4,9-TETRAHYDRO-1H-PYRIDO[3,4-B]INDOLE DERIVATIVES AS ESTROGEN RECEPTOR MODULATORS FOR THE TREATMENT OF CANCER” (Olema Pharmaceuticals, Inc., priority 2022, published 2026):

Biological target: T1, estrogen receptor (Homo sapiens, UniProt P03372)
T1 construct: endogenous in cells; host or cells: ECC-1 cells
T1 sequence (P03372 1-595): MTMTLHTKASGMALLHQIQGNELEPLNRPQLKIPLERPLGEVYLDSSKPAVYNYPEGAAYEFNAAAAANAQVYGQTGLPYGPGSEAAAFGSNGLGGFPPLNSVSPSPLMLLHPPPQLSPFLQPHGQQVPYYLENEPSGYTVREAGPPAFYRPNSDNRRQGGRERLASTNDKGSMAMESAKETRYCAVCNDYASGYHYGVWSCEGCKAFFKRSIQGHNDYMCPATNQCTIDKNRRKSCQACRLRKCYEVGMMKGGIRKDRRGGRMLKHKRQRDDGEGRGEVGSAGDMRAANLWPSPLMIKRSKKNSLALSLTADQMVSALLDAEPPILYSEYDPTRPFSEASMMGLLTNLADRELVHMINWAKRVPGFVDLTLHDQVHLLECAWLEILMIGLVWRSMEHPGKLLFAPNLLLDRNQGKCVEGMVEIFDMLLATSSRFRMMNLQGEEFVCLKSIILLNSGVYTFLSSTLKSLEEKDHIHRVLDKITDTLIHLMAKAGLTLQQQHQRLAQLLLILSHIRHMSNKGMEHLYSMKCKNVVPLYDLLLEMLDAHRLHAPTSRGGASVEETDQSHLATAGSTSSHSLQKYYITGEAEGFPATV
Assay: Alkaline phosphatase (AP) assay in ECC-1 cells, agonist mode (no E2) and antagonist mode (500 pM E2)
Type: cell-based
Conditions: 3 days, AP activity normalized to 500 pM E2 alone, agonist mode without E2, antagonist mode with 500 pM E2
Description: ECC-1 cells were trypsinized and resuspended in hormone-depleted media and plated at a density of 15 k cells per well into a 96-well plate for at least 4 hours. Cells were treated with test compounds in the absence of E2 (for agonist mode) or in the presence of 500 pM E2 (for antagonist mode) for 3 days and plates were subsequently frozen at −80° C. Thawed plates were incubated with a chromogenic substrate of AP, p-nitrophenyl phosphate (Thermo Fisher Scientific), for 40 minutes at 42° C., and absorbances were read at 405 nm. AP activity was normalized to the activity of 500 pM E2 alone.
The compound numbers correspond to the compound numbers of Table 1 and 2. Compounds having an activity designated as “+” provided estrogen receptor agonism having (i) at least 80% increase in the E2-normalized signal in the AP assay (agonist mode) and (ii) no more than 80% reduction in the E2-normalized signal in the AP assay (antagonist mode). Compounds having an activity designated as “++” provided estrogen receptor antagonism having (i) between 10% and 80% increase in the E2-normalized signal in the AP assay (agonist mode) and (ii) between 10% and 80% reduction in the E2-normalized signal in the AP assay (antagonist mode).

CCCN1CC(Cc2ccc([C@@H]3c4[nH]c5ccccc5c4C[C@@H](C)N3CC(C)(C)F)s2)C1 [Example I-1, 3-({5-[(1S,3R)-2-(2-fluoro-2-methylpropyl)-3-methyl-1H,2H,3H,4H,9H-pyrido[3,4-b]indol-1-yl]thiophen-2-yl}methyl)-1-propylazetidine]
Activity (estrogen receptor modulation, agonism and antagonism): ++ (estrogen receptor antagonism having (i) between 10% and 80% increase in the E2-normalized signal in the AP assay (agonist mode) and (ii) between 10% and 80% reduction in the E2-normalized signal in the AP assay (antagonist mode))

C[C@@H]1Cc2c([nH]c3ccccc23)[C@@H](c2ccc(CC3CN(CCCF)C3)s2)N1CC(C)(C)F [Example I-2, 3-({5-[(1S,3R)-2-(2-fluoro-2-methylpropyl)-3-methyl-1H,2H,3H,4H,9H-pyrido[3,4-b]indol-1-yl]thiophen-2-yl}methyl)-1-(3-fluoropropyl)azetidine]
Activity (estrogen receptor modulation, agonism and antagonism): ++ (estrogen receptor antagonism having (i) between 10% and 80% increase in the E2-normalized signal in the AP assay (agonist mode) and (ii) between 10% and 80% reduction in the E2-normalized signal in the AP assay (antagonist mode))

CCCN1CC(Cc2cnc([C@@H]3c4[nH]c5ccccc5c4C[C@@H](C)N3CC(C)(C)F)s2)C1 [Example I-3, 2-[(1S,3R)-2-(2-fluoro-2-methylpropyl)-3-methyl-1H,2H,3H,4H,9H-pyrido[3,4-b]indol-1-yl]-5-[(1-propylazetidin-3-yl)methyl]-1,3-thiazole]
Activity (estrogen receptor modulation, agonism and antagonism): + (estrogen receptor agonism having (i) at least 80% increase in the E2-normalized signal in the AP assay (agonist mode) and (ii) no more than 80% reduction in the E2-normalized signal in the AP assay (antagonist mode))

C[C@@H]1Cc2c([nH]c3ccccc23)[C@@H](c2ncc(CC3CN(CCCF)C3)s2)N1CC(C)(C)F [Example I-4, 2-[(1S,3R)-2-(2-fluoro-2-methylpropyl)-3-methyl-1H,2H,3H,4H,9H-pyrido[3,4-b]indol-1-yl]-5-{[1-(3-fluoropropyl)azetidin-3-yl]methyl}-1,3-thiazole]
Activity (estrogen receptor modulation, agonism and antagonism): + (estrogen receptor agonism having (i) at least 80% increase in the E2-normalized signal in the AP assay (agonist mode) and (ii) no more than 80% reduction in the E2-normalized signal in the AP assay (antagonist mode))

Cc1cc(CC2CN(CCCF)C2)sc1[C@@H]1c2[nH]c3ccccc3c2C[C@@H](C)N1CC(C)(C)F [Example I-6, 3-({5-[(1S,3R)-2-(2-fluoro-2-methylpropyl)-3-methyl-1H,2H,3H,4H,9H-pyrido[3,4-b]indol-1-yl]-4-methylthiophen-2-yl}methyl)-1-(3-fluoropropyl)azetidine]
Activity (estrogen receptor modulation, agonism and antagonism): ++ (estrogen receptor antagonism having (i) between 10% and 80% increase in the E2-normalized signal in the AP assay (agonist mode) and (ii) between 10% and 80% reduction in the E2-normalized signal in the AP assay (antagonist mode))

CCCN1CC(Cc2ncc([C@@H]3c4[nH]c5ccccc5c4C[C@@H](C)N3CC(C)(C)F)s2)C1 [Example I-7, 5-((1S,3R)-2-(2-fluoro-2-methylpropyl)-3-methyl-2,3,4,9-tetrahydro-1H-pyrido[3,4-b]indol-1-yl)-2-((1-propylazetidin-3-yl)methyl)thiazole]
Activity (estrogen receptor modulation, agonism and antagonism): ++ (estrogen receptor antagonism having (i) between 10% and 80% increase in the E2-normalized signal in the AP assay (agonist mode) and (ii) between 10% and 80% reduction in the E2-normalized signal in the AP assay (antagonist mode))

CCCN1CC(Cc2sc([C@@H]3c4[nH]c5ccccc5c4C[C@@H](C)N3CC(C)(C)F)cc2C)C1 [Example I-8, (1S,3R)-2-(2-fluoro-2-methylpropyl)-3-methyl-1-(4-methyl-5-((1-propylazetidin-3-yl)methyl)thiophen-2-yl)-2,3,4,9-tetrahydro-1H-pyrido[3,4-b]indole]
Activity (estrogen receptor modulation, agonism and antagonism): ++ (estrogen receptor antagonism having (i) between 10% and 80% increase in the E2-normalized signal in the AP assay (agonist mode) and (ii) between 10% and 80% reduction in the E2-normalized signal in the AP assay (antagonist mode))

Cc1cc([C@@H]2c3[nH]c4ccccc4c3C[C@@H](C)N2CC(C)(C)F)sc1CC1CN(CCCF)C1 [Example I-9, (1S,3R)-2-(2-fluoro-2-methylpropyl)-1-(5-((1-(3-fluoropropyl)azetidin-3-yl)methyl)-4-methylthiophen-2-yl)-3-methyl-2,3,4,9-tetrahydro-1H-pyrido[3,4-b]indole]
Activity (estrogen receptor modulation, agonism and antagonism): ++ (estrogen receptor antagonism having (i) between 10% and 80% increase in the E2-normalized signal in the AP assay (agonist mode) and (ii) between 10% and 80% reduction in the E2-normalized signal in the AP assay (antagonist mode))

CCCN1CC(Cc2sc([C@@H]3c4[nH]c5ccccc5c4C[C@@H](C)N3CC(C)(C)F)cc2F)C1 [Example I-10, (1S,3R)-2-(2-fluoro-2-methylpropyl)-1-(4-fluoro-5-((1-propylazetidin-3-yl)methyl)thiophen-2-yl)-3-methyl-2,3,4,9-tetrahydro-1H-pyrido[3,4-b]indole]
Activity (estrogen receptor modulation, agonism and antagonism): ++ (estrogen receptor antagonism having (i) between 10% and 80% increase in the E2-normalized signal in the AP assay (agonist mode) and (ii) between 10% and 80% reduction in the E2-normalized signal in the AP assay (antagonist mode))

CCCN1CC(Cc2cc(F)c([C@@H]3c4[nH]c5ccccc5c4C[C@@H](C)N3CC(C)(C)F)s2)C1 [Example I-11, 3-({4-fluoro-5-[(1S,3R)-2-(2-fluoro-2-methylpropyl)-3-methyl-1H,2H,3H,4H,9H-pyrido[3,4-b]indol-1-yl]thiophen-2-yl}methyl)-1-propylazetidine]
Activity (estrogen receptor modulation, agonism and antagonism): ++ (estrogen receptor antagonism having (i) between 10% and 80% increase in the E2-normalized signal in the AP assay (agonist mode) and (ii) between 10% and 80% reduction in the E2-normalized signal in the AP assay (antagonist mode))

C[C@@H]1Cc2c([nH]c3ccccc23)[C@@H](c2sc(CC3CN(CCCF)C3)cc2F)N1CC(C)(C)F [Example I-12, 3-({4-fluoro-5-[(1S,3R)-2-(2-fluoro-2-methylpropyl)-3-methyl-1H,2H,3H,4H,9H-pyrido[3,4-b]indol-1-yl]thiophen-2-yl}methyl)-1-(3-fluoropropyl)azetidine]
Activity (estrogen receptor modulation, agonism and antagonism): ++ (estrogen receptor antagonism having (i) between 10% and 80% increase in the E2-normalized signal in the AP assay (agonist mode) and (ii) between 10% and 80% reduction in the E2-normalized signal in the AP assay (antagonist mode))

C[C@@H]1Cc2c([nH]c3ccccc23)[C@@H](c2cc(F)c(CC3CN(CCCF)C3)s2)N1CC(C)(C)F [Example I-13, (1S,3R)-2-(2-fluoro-2-methylpropyl)-1-(4-fluoro-5-((1-(3-fluoropropyl)azetidin-3-yl)methyl)thiophen-2-yl)-3-methyl-2,3,4,9-tetrahydro-1H-pyrido[3,4-b]indole]
Activity (estrogen receptor modulation, agonism and antagonism): ++ (estrogen receptor antagonism having (i) between 10% and 80% increase in the E2-normalized signal in the AP assay (agonist mode) and (ii) between 10% and 80% reduction in the E2-normalized signal in the AP assay (antagonist mode))

C[C@@H]1Cc2c([nH]c3ccccc23)[C@@H](c2cnc(CC3CN(CCCF)C3)s2)N1CC(C)(C)F [Example I-14, 5-[(1S,3R)-2-(2-fluoro-2-methylpropyl)-3-methyl-1H,2H,3H,4H,9H-pyrido[3,4-b]indol-1-yl]-2-{[1-(3-fluoropropyl)azetidin-3-yl]methyl}-1,3-thiazole]
Activity (estrogen receptor modulation, agonism and antagonism): ++ (estrogen receptor antagonism having (i) between 10% and 80% increase in the E2-normalized signal in the AP assay (agonist mode) and (ii) between 10% and 80% reduction in the E2-normalized signal in the AP assay (antagonist mode))

C[C@@H]1Cc2c([nH]c3ccccc23)[C@@H](c2ccc(CC3CN(CCC(F)(F)F)C3)s2)N1CC(C)(C)F [Example I-15, 3-({5-[(1S,3R)-2-(2-fluoro-2-methylpropyl)-3-methyl-1H,2H,3H,4H,9H-pyrido[3,4-b]indol-1-yl]thiophen-2-yl}methyl)-1-(3,3,3-trifluoropropyl)azetidine]
Activity (estrogen receptor modulation, agonism and antagonism): ++ (estrogen receptor antagonism having (i) between 10% and 80% increase in the E2-normalized signal in the AP assay (agonist mode) and (ii) between 10% and 80% reduction in the E2-normalized signal in the AP assay (antagonist mode))
